From patent publication US11844779B2, “PKC-Delta-I inhibitor formulations and uses thereof” (University of South Florida, priority 2016, dated 2023)

Legend:
[1] = target: T1, PKCδI (Mus musculus, UniProt P28867); test: Western blot on differentiating 3T3L1 cells (inhibitors added day 1 of differentiation); type: cell-based; conditions: 3T3L1, inhibitors added day 1 of differentiation, 24 h; for cleavage and release of the PKCδI catalytic domain: C-terminal PKCδ antibody
T1 construct: endogenous in cells; host or cells: 3T3L1 (differentiating pre-adipocytes, day 1; mature adipocytes, day 6)
Procedure: The compounds identified from the docking modeling were tested for their ability to inhibit PKCδI. 3T3L1 cells were plated in 60 mm dishes and differentiated. PKCδI regulates cell cycle during differentiation of pre-adipocytes to adipocytes. The inhibitors were added on day 1 of differentiation during mitotic clonal expansion when PKCδI expression is high (18). After 24 h, the cells were harvested and western blot analysis was performed on whole cell lysates.

[2] = system: other PKCs; test: PKC kinase activity kit, colorimetric assay (ENZO), other PKC isozymes; type: biochemical; conditions: run in triplicate
Procedure: (§1) Briefly, a Protein Kinase C (PKC) kinase activity kit was used and a colorimetric assay (ENZO; run in triplicate) was performed. Relative kinase activity was calculated as (average absorbance of PKC isozyme−Average absorbance of blank)/quantity of pure kinase used per assay.

[3] = target: T1, PKCδI; test: Western blot on mature adipocytes (inhibitors added day 6 of differentiation); type: cell-based; conditions: for phosphorylation of myelin basic protein (PKCδI substrate) / cleavage and release of the PKCδI catalytic domain: mature adipocytes, inhibitors added day 6 of differentiation, 24 h; for cleavage and release of the PKCδI catalytic domain: C-terminal PKCδ antibody
Procedure: Next, compounds 5139627, 5320091, 72950115, 28578828, 61397826 and 43844983 were tested on mature adipocytes. The inhibitors were added on day 6 of differentiation when the adipocytes are lipid laden. After 24 h, the cells were harvested and western blot analysis was performed on whole cell lysates.

[4] = target: T2, PKCδVIII (Homo sapiens, UniProt Q05655); test: Western blot on adipocytes from obese donor, PKCδVIII; type: cell-based; conditions: about 10-100 nM, about 24 h
T2 construct: adipocytes from the obese donor were treated with about 10-100 nM NP627; endogenous in cells; host or cells: primary human adipocytes from visceral adipose tissue of an obese donor
Excerpt: (§2) The C-terminal fragment of PKCδI phosphorylates its substrates that mediate expression of pro-apoptotic proteins. For a functional read-out, an assay was designed to measure: (1) Bcl-xL switching to its pro-apoptotic variant Bcl-xS and (2) Caspase9b switching to its pro-apoptotic variant caspase 9a. Briefly, adipocytes were freshly isolated from human visceral adipose tissue of lean and obese donors (IRB #20295; lean BMI 22.1 and 23; obese BMI 43.7 and 44.3; non-diabetic, nonsmokers, non-cancer).
(§3) Additionally, adipocytes from the obese donor were treated with about 10-100 nM NP627 (compound 513627) for about 24 h (n=3). Expression of PKCδI_F, PKCδI_C, PKCδVIII, and β-Actin (control) were analyzed using western blotting.

[5] = system: Bxl-xS and caspase9a; test: PCR based expression of pro-apoptotic variants in adipocytes from obese donor; type: cell-based, human; conditions: about 10 nM, about 24 h
Excerpt: as §2
Additionally, adipocytes from the obese donor were treated with about 10 nM of NP627 for about 24 h (n=3). Expression of Bxl-xL, Bxl-xS, caspase9a, andβ-actin (control) were analyzed using a PCR based technique (n=3).

[6] = target: T3, PKCδI (Homo sapiens, UniProt Q05655); test: PKC kinase activity kit, colorimetric assay (ENZO); type: biochemical; conditions: run in triplicate
Procedure: as §1

[7] = target: T3, PKCδI; test: In vitro kinase assay with recombinant PKCδI and SC35 as substrate; type: biochemical; conditions: 10 nM, 30 min incubation prior to assay, phosphatidyl serine and ATP
Procedure: Next, in vitro kinase assays were performed with recombinant proteins PKCδI and SC35 (as substrate) in a kinase buffer containing phosphatidyl serine and ATP; with and without 10 nM 5139627, 28578828 (30 min incubation prior to assay).

[8] = system: obese adipocytes; test: WST-1 assay for cell viability; type: cell-based; conditions: 10 nM
Procedure: A WST-1 assay performed using obese adipocytes treated with 513627 to evaluate toxicity of compound 513627. Briefly, obese adipocytes were treated with 10 nM of compound 513627 and a WST-1 assay for cell viability was performed. FIG. 5 represents data from four experiments.

[9] = target: T3, PKCδI; test: Western blot on adipocytes from obese donor, PKCδI cleavage; type: cell-based; design: adipocytes from the obese donor were treated with about 10-100 nM NP627; endogenous in cells; host or cells: primary human adipocytes from visceral adipose tissue of an obese donor; conditions: about 10-100 nM, about 24 h
Excerpt: as §2, §3

[10] = both pre-adipocytes and mature adipocytes

T3 sequence (Q05655 whole entry): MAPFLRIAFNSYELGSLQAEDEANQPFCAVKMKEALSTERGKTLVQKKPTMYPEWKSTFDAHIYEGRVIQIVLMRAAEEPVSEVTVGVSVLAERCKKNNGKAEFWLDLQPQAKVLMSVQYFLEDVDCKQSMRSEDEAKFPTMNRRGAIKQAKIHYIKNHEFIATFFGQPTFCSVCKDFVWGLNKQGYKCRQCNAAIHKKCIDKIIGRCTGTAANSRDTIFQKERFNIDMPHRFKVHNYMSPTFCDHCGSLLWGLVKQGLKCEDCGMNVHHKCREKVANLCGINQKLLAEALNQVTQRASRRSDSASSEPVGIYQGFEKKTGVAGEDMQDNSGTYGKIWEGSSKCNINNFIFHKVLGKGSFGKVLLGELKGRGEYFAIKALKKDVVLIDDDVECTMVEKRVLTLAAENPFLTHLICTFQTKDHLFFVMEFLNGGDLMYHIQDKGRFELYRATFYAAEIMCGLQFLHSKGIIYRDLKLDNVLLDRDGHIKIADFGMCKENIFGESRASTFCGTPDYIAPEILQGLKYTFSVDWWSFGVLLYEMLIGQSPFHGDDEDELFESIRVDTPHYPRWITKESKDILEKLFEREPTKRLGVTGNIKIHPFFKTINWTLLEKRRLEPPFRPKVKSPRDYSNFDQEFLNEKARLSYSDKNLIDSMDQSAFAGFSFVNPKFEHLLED
T1 sequence (P28867 whole entry, the tested form may be a part): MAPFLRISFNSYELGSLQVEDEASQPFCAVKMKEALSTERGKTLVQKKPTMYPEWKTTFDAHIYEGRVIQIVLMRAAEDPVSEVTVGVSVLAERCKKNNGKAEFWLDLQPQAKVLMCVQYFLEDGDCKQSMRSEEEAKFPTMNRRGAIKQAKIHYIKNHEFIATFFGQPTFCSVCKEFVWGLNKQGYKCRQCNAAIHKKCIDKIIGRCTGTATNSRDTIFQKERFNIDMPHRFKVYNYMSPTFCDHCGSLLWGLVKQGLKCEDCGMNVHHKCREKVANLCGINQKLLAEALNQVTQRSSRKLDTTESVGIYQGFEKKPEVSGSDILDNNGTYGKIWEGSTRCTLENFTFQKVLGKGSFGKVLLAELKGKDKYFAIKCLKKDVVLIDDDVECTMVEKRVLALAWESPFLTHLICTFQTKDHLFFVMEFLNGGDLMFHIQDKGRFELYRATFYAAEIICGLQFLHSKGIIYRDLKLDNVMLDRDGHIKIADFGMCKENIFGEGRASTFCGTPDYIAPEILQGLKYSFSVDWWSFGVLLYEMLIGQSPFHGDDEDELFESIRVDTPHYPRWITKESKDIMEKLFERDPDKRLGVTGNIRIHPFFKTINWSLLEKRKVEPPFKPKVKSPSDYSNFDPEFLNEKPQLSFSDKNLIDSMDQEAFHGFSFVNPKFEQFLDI
T2 sequence (Q05655 1-707 isoform Q05655-2): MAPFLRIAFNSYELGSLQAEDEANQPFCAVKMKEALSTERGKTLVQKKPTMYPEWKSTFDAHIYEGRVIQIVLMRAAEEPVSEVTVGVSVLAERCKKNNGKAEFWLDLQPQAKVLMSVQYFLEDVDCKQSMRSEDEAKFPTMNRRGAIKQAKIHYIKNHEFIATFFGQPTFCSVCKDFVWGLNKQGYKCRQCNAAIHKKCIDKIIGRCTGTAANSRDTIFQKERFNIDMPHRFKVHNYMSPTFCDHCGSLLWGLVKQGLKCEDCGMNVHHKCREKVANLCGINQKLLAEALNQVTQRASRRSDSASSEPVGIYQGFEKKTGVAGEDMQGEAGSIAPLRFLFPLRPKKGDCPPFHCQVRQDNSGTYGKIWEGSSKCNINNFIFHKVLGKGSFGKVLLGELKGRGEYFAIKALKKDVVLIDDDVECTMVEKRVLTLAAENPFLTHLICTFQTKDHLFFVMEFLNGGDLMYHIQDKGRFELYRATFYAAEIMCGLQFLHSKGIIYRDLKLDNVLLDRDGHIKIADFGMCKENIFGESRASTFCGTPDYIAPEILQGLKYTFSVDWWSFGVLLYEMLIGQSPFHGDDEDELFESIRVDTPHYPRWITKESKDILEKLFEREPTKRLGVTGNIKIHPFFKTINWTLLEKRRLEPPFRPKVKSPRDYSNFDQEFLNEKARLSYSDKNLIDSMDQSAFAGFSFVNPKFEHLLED

cleavage and release of the PKCδI catalytic domain [1]	other PKC isozyme activities [2]	phosphorylation of myelin basic protein (PKCδI substrate) [3]	cleavage and release of the PKCδI catalytic domain [3]	PKCδVIII (alternatively spliced variant) [4]	specificity for PKCδI (relative kinase activity) [6]	PKCδI activity [7]	cleavage of PKCδI [9]	phosphorylation of myelin basic protein (PKCδI substrate) [1]	inhibition of PKCδI cleavage [3, 10]	inhibition of phosphorylation of MBP [3, 10]	SMILES	expression of Bxl-xS [5]	expression of caspase9a [5]	cellular toxicity (cell viability) [8]
inhibit the cleavage and release	not inhibited	decreased phosphorylation	inhibited the cleavage and release	not inhibited	specificity for PKCδI	specifically inhibit PKCδI activity	specifically inhibits cleavage of PKCδI				N=C(CCN1C(=O)c2ccccc2C1=O)NNC(=O)CCCC(=O)NNC(=N)CCN1C(=O)c2ccccc2C1=O [compound 5139627, N′~1~,N′~5~-bis[3-(1,3-dioxo-1,3-dihydro-2H-isoindo1-2-yl)propanimidoyl]pentanedihydrazide]	decrease expression	decrease expression	did not appear to cause cellular toxicity
inhibit the cleavage and release		decreased phosphorylation	inhibited the cleavage and release			specifically inhibit PKCδI activity		decreased phosphorylation			OCCNc1cc(-c2cc(CO)ccn2)c2cc[nH]c2n1 [compound 28578828, 2-({4-[4-(hydroxymethyl)pyridin-2-yl]-1H-pyrrolo[2,3-b]pyridin-6-yl}amino)ethanol]			
inhibit the cleavage and release		decreased phosphorylation	inhibited the cleavage and release					decreased phosphorylation			Cc1nc2c(c(N(C)C)n1)CCN(C(=O)[C@@H]1C[C@@H](O)CN1)C2 [compound 61397826, (3R,5S)-5-{[4-(dimethylamino)-2-methyl-5,8-dihydropyrido[3,4-d]pyrimidin-7(6H)-yl]carbonyl}-3-pyrrolidinol]			

The next lines start with the molecule.

SMILES	cleavage and release of the PKCδI catalytic domain [1]	other PKC isozyme activities [2]	phosphorylation of myelin basic protein (PKCδI substrate) [3]	cleavage and release of the PKCδI catalytic domain [3]	PKCδVIII (alternatively spliced variant) [4]	specificity for PKCδI (relative kinase activity) [6]	PKCδI activity [7]	cleavage of PKCδI [9]	phosphorylation of myelin basic protein (PKCδI substrate) [1]	inhibition of PKCδI cleavage [3, 10]	inhibition of phosphorylation of MBP [3, 10]	expression of Bxl-xS [5]	expression of caspase9a [5]	cellular toxicity (cell viability) [8]
CC(C)(O)C(=O)C=Cc1ccc2c(c1)OCO2 [compound 5320091, 1-(1,3-benzodioxol-5-yl)-4-hydroxy-4-methyl-1-penten-3-one]	inhibit the cleavage and release		decreased phosphorylation	inhibited the cleavage and release					decreased phosphorylation					
CN(Cc1cnccn1)C(=O)c1cccc(C#CC(C)(C)O)c1 [compound 43844983, 3-(3-hydroxy-3-methylbut-1-yn-1-yl)-N-methyl-N-(pyrazin-2-ylmethyl)benzamide]	inhibit the cleavage and release		decreased phosphorylation	inhibited the cleavage and release					decreased phosphorylation	completely inhibit	completely inhibit			
CCN(C/C=C/c1ccccc1)C(=O)CCc1nc2ccccc2[nH]1 [compound 72950115, 3-(1H-benzimidazol-2-yl)-N-ethyl-N-[(2E)-3-phenylprop-2-en-1-yl]propanamide]	inhibit the cleavage and release		decreased phosphorylation	inhibited the cleavage and release					decreased phosphorylation					
